Test results as given in ChEMBL document CHEMBL1201862, “PubChem BioAssay data set” (2004).
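In this assay, cells in 96-well plates receive the compound at five concentrations for 48 hours. Endpoints are linearly interpolated between the surrounding concentrations. GI50 marks 50% less growth.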 Activity calls are given as the source filed them. No stated cut-off is given here; in the data, active = GI50 up to about 1.1 µM and inactive = higher. Where a SMILES comes first, the peptide text is derived from it. [ ]: non-standard residue; d: D form. The star is where a group is joined. ξ: configuration not given here. X4 = COc1ccc(C(N*)c2ccc(OC)cc2)cc1; NMeF = CN[C@@H](Cc1ccccc1)C(=O)O; NMeD = CN[C@@H](CC(=O)O)C(=O)O; NMeV = CN[C@H](C(=O)O)C(C)C; ξNMeV = CNC(C(=O)O)C(C)C; Boc = CC(C)(C)OC(=O)*; ξNMeA = CNC(C)C(=O)O; ξV = CC(C)C(N)C(=O)O

Legend:
Assay in all cases: growth of human tumour cells (NCI), 48 h
CCRF-CEM = system: CCRF-CEM
NCI-H460 = system: NCI-H460
Hs-578T = system: Hs-578T
HL-60 = system: HL-60
SNB-19 = system: SNB-19
A549 = system: A549
SF-539 = system: SF-539
MDA-MB-231 = system: MDA-MB-231
MDA-N = system: MDA-N
MDA-MB-435 = system: MDA-MB-435
SK-OV-3 = system: SK-OV-3
MCF7 = system: MCF7
A498 = system: A498
BT-549 = system: BT-549
SW-620 = system: SW-620
OVCAR-5 = system: OVCAR-5
OVCAR-4 = system: OVCAR-4
TK-10 = system: TK-10
786-0 = system: 786-0
UO-31 = system: UO-31

CCOC(=O)/C(C(N)=O)=C(O)/C(O)=C(\Br)C(=O)c1ccccc1
GI50 (CCRF-CEM): 0.979 µM (active)
GI50 (NCI-H460): 24.8 µM (inactive)
GI50 (Hs-578T): 20.4 µM (inactive)
GI50 (HL-60): 0.0622 µM (active)
GI50 (SNB-19): 47 µM (inactive)
GI50 (A549): 20.4 µM (inactive)
GI50 (SF-539): 18.5 µM (inactive)
GI50 (MDA-MB-231): 19.6 µM (inactive)
GI50 (MDA-N): 17.5 µM (inactive)
GI50 (MDA-MB-435): 16.9 µM (inactive)
GI50 (SK-OV-3): 26.2 µM (inactive)
GI50 (MCF7): 17.7 µM (inactive)
GI50 (A498): > 100 µM (inactive)
GI50 (BT-549): 18.6 µM (inactive)
GI50 (SW-620): 9.66 µM (inactive)
GI50 (OVCAR-5): 19.4 µM (inactive)
GI50 (OVCAR-4): 22 µM (inactive)
GI50 (TK-10): 19 µM (inactive)
GI50 (786-0): 15.8 µM (inactive)
GI50 (UO-31): 18.9 µM (inactive)

COc1ccc(C(NC(=O)C[C@@H](C(=O)N(C)C(C)C(=O)O)N(C)C(=O)[C@@H]2CCCN2C(=O)[C@H](C(C)C)N(C)C(=O)C(C(C)C)N(C)C(=O)[C@H](Cc2ccccc2)N(C)C(=O)C(NC(=O)OC(C)(C)C)C(C)C)c2ccc(OC)cc2)cc1 (stereo not given in full) (Boc-[ξV][NMeF][ξNMeV][NMeV]P[NMeD](X4)[ξNMeA]-OH)
GI50 (CCRF-CEM): 7.43 µM (inactive)
GI50 (NCI-H460): 24.5 µM (inactive)
GI50 (Hs-578T): 2.56 µM (inactive)
GI50 (HL-60): 8 µM (inactive)
GI50 (SNB-19): 22.4 µM (inactive)
GI50 (A549): > 37.5 µM (inactive)
GI50 (SF-539): 7.94 µM (inactive)
GI50 (MDA-MB-231): 11.3 µM (inactive)
GI50 (MDA-N): 12.5 µM (inactive)
GI50 (MDA-MB-435): 9.1 µM (inactive)
GI50 (SK-OV-3): > 37.5 µM (inactive)
GI50 (MCF7): 16.1 µM (inactive)
GI50 (A498): > 37.5 µM (inactive)
GI50 (BT-549): 6.73 µM (inactive)
GI50 (SW-620): 8.18 µM (inactive)
GI50 (OVCAR-5): > 37.5 µM (inactive)
GI50 (OVCAR-4): 17.5 µM (inactive)
GI50 (TK-10): 23.7 µM (inactive)
GI50 (786-0): 21.3 µM (inactive)
GI50 (UO-31): 24.8 µM (inactive)

Cc1cc(C)c2c(=O)n(CN3CC4Nc5ccccc5C4C3)sc2n1 (stereo not given)
GI50 (CCRF-CEM): 22 µM (inactive)
GI50 (NCI-H460): 20.9 µM (inactive)
GI50 (Hs-578T): 16.6 µM (inactive)
GI50 (HL-60): 25.6 µM (inactive)
GI50 (SNB-19): 65.9 µM (inactive)
GI50 (A549): 38.5 µM (inactive)
GI50 (SF-539): 19.9 µM (inactive)
GI50 (MDA-MB-231): 18.7 µM (inactive)
GI50 (MDA-N): 19.5 µM (inactive)
GI50 (MDA-MB-435): 19.5 µM (inactive)
GI50 (SK-OV-3): 56 µM (inactive)
GI50 (MCF7): 32.1 µM (inactive)
GI50 (A498): 37.9 µM (inactive)
GI50 (BT-549): 31.2 µM (inactive)
GI50 (SW-620): 22.8 µM (inactive)
GI50 (OVCAR-5): 21 µM (inactive)
GI50 (OVCAR-4): 21 µM (inactive)
GI50 (TK-10): 19.4 µM (inactive)
GI50 (786-0): 17.2 µM (inactive)
GI50 (UO-31): 16.3 µM (inactive)

CC(O)=NC(Cc1ccc2ccccc2c1)C(O)=NC(Cc1ccc(Cl)cc1)C(O)=NC(Cc1c[nH]c2ccccc12)C(O)=NC(CO)C(O)=NC(Cc1ccc(O)cc1)C(O)=NC(CCCN=C(N)N)C(O)=NC(CC(C)C)C(O)=NC(CCCN=C(N)N)C(=O)N1CCCC1C(O)=NC(C)C(=N)O (stereo not given)
GI50 (CCRF-CEM): > 100 µM (inactive)
GI50 (NCI-H460): 54.7 µM (inactive)
GI50 (Hs-578T): 47.4 µM (inactive)
GI50 (HL-60): > 100 µM (inactive)
GI50 (SNB-19): 48.9 µM (inactive)
GI50 (A549): 42.6 µM (inactive)
GI50 (SF-539): 36.6 µM (inactive)
GI50 (MDA-MB-231): 59.7 µM (inactive)
GI50 (MDA-N): 30.4 µM (inactive)
GI50 (MDA-MB-435): 40.1 µM (inactive)
GI50 (SK-OV-3): 43.5 µM (inactive)
GI50 (MCF7): 43.8 µM (inactive)
GI50 (A498): 37.6 µM (inactive)
GI50 (BT-549): 12.1 µM (inactive)
GI50 (SW-620): 76.7 µM (inactive)
GI50 (OVCAR-5): 41.3 µM (inactive)
GI50 (OVCAR-4): 74 µM (inactive)
GI50 (TK-10): 30.9 µM (inactive)
GI50 (786-0): 35.8 µM (inactive)
GI50 (UO-31): 26 µM (inactive)

Oc1nc2nnc(COc3ccc(Cl)cc3Cl)n2nc1Cc1ccccc1
GI50 (CCRF-CEM): 33 µM (inactive)
GI50 (NCI-H460): 84.5 µM (inactive)
GI50 (Hs-578T): 51.6 µM (inactive)
GI50 (HL-60): 49.2 µM (inactive)
GI50 (SNB-19): 31.6 µM (inactive)
GI50 (A549): 94.2 µM (inactive)
GI50 (SF-539): 20.1 µM (inactive)
GI50 (MDA-MB-231): 43.2 µM (inactive)
GI50 (MDA-N): > 100 µM (inactive)
GI50 (MDA-MB-435): > 100 µM (inactive)
GI50 (SK-OV-3): 27.4 µM (inactive)
GI50 (MCF7): > 100 µM (inactive)
GI50 (A498): 31.3 µM (inactive)
GI50 (BT-549): > 100 µM (inactive)
GI50 (SW-620): > 100 µM (inactive)
GI50 (OVCAR-5): > 100 µM (inactive)
GI50 (OVCAR-4): 47.8 µM (inactive)
GI50 (TK-10): 34.6 µM (inactive)
GI50 (786-0): 20.8 µM (inactive)
GI50 (UO-31): 24.2 µM (inactive)

CC(C)/C(Cl)=N/OC(=O)Nc1ccc(OC(F)(F)F)cc1
GI50 (CCRF-CEM): 1.27 µM (inactive)
GI50 (NCI-H460): 16.6 µM (inactive)
GI50 (Hs-578T): 15.8 µM (inactive)
GI50 (HL-60): 1.97 µM (inactive)
GI50 (SNB-19): 17.7 µM (inactive)
GI50 (A549): 17 µM (inactive)
GI50 (SF-539): 17.3 µM (inactive)
GI50 (MDA-MB-231): 15.6 µM (inactive)
GI50 (MDA-N): 13.4 µM (inactive)
GI50 (MDA-MB-435): 12.6 µM (inactive)
GI50 (SK-OV-3): 17.6 µM (inactive)
GI50 (MCF7): 13.5 µM (inactive)
GI50 (A498): 18.6 µM (inactive)
GI50 (BT-549): 16.3 µM (inactive)
GI50 (SW-620): 1.77 µM (inactive)
GI50 (OVCAR-5): 15.6 µM (inactive)
GI50 (OVCAR-4): 4.19 µM (inactive)
GI50 (TK-10): 15.9 µM (inactive)
GI50 (786-0): 6.81 µM (inactive)
GI50 (UO-31): 10.8 µM (inactive)

NC(CCC(=O)O)C(=O)NC(Cc1ccc(N(CCCl)CCCl)cc1)C(=O)O (stereo not given)
GI50 (CCRF-CEM): > 100 µM (inactive)
GI50 (NCI-H460): > 100 µM (inactive)
GI50 (Hs-578T): > 100 µM (inactive)
GI50 (HL-60): > 100 µM (inactive)
GI50 (SNB-19): > 100 µM (inactive)
GI50 (A549): > 100 µM (inactive)
GI50 (SF-539): > 100 µM (inactive)
GI50 (MDA-MB-231): > 100 µM (inactive)
GI50 (MDA-N): > 100 µM (inactive)
GI50 (MDA-MB-435): > 100 µM (inactive)
GI50 (SK-OV-3): > 100 µM (inactive)
GI50 (MCF7): > 100 µM (inactive)
GI50 (A498): > 100 µM (inactive)
GI50 (BT-549): > 100 µM (inactive)
GI50 (SW-620): > 100 µM (inactive)
GI50 (OVCAR-5): > 100 µM (inactive)
GI50 (OVCAR-4): > 100 µM (inactive)
GI50 (TK-10): > 100 µM (inactive)
GI50 (786-0): > 100 µM (inactive)
GI50 (UO-31): > 100 µM (inactive)

CCCCCCCCCCCCCCCC(=O)OCC1OC(OC)C(NC(=O)N(CCCl)N=O)C(O)C1O (stereo not given)
GI50 (CCRF-CEM): 7.36 µM (inactive)
GI50 (NCI-H460): 5.61 µM (inactive)
GI50 (Hs-578T): 23 µM (inactive)
GI50 (HL-60): 4.57 µM (inactive)
GI50 (SNB-19): 14.8 µM (inactive)
GI50 (A549): 9.68 µM (inactive)
GI50 (SF-539): 3.32 µM (inactive)
GI50 (MDA-MB-231): 17.9 µM (inactive)
GI50 (MDA-N): 15.1 µM (inactive)
GI50 (MDA-MB-435): 16.7 µM (inactive)
GI50 (SK-OV-3): 21.8 µM (inactive)
GI50 (MCF7): 45.4 µM (inactive)
GI50 (A498): 29.6 µM (inactive)
GI50 (BT-549): 28.3 µM (inactive)
GI50 (SW-620): 9.48 µM (inactive)
GI50 (OVCAR-5): 35 µM (inactive)
GI50 (OVCAR-4): 20 µM (inactive)
GI50 (TK-10): 22.8 µM (inactive)
GI50 (786-0): 2.01 µM (inactive)
GI50 (UO-31): 24 µM (inactive)
